Reference: PMC3852541, “Construction of an in vitro bypassed pyruvate decarboxylation pathway using thermostable enzyme modules and its application to N-acetylglutamate production” (Microbial Cell Factories, 2013)

Target: T1, TtADDH (Thermus thermophilus, UniProt Q53WH9)
T1 construct: gene TTHB247; full-length from RIKEN T. thermophilus HB8 expression plasmid set; E. coli Rosetta2 (DE3), heat-treated lysate (70 C, 30 min)
Assay: NAD+ reduction at […] nm; HPLC of products
Type: biochemical
Conditions: 0.2 mM NAD+, 0.2 mM CoA, 0.2 mM acetaldehyde; 50 mM HEPES-NaOH pH 7.0, 100 mM KCl, 10 mM MgCl2, 50 C

T1 sequence (Q53WH9 whole entry): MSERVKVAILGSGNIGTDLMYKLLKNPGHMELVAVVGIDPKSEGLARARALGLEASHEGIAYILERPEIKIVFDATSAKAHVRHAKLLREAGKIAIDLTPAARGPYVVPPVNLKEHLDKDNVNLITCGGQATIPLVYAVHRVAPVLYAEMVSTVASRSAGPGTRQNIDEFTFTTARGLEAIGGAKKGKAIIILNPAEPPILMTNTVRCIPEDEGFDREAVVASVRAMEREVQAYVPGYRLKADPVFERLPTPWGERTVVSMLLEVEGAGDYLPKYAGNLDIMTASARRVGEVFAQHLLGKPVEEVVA

CC=O [acetaldehyde]
NAD+ reduction at 340 nm; HPLC of products: TtADDH could catalyze the oxidation of acetaldehyde in both CoA-dependent (acetyl-CoA-forming) and CoA-independent
